One series concerns Botrytis cinerea. Nature of the series: Test A: tomato seedlings sprayed, next day inoculated with Botrytis cinerea (tomato Botrytis), visual disease rating. In kind it is in vivo. Conditions: Botrytis cinerea, 200 ppm test suspension, sprayed day before inoculation. A digest of the protocol:
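Tomato seedlings were sprayed to run-off with 200 ppm suspension (≈500 g/ha; 40 ppm where starred) and inoculated next day with B. cinerea spores. Plants were held 48 h at 20 °C in saturated humidity, then 3 days at 24 °C, and disease control was rated visually, 0–100, relative to controls.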

For another series, the system named is Alternaria solani. Nature of the series: Test B: tomato seedlings sprayed, next day inoculated with Alternaria solani (tomato early blight), visual disease rating. It is filed as in vivo. Conditions: Alternaria solani, 200 ppm test suspension, sprayed day before inoculation. The method, boiled down: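 Tomato seedlings sprayed to run-off with 200 ppm (some 40 ppm) compound suspensions in acetone/water with surfactant; inoculated next day with A. solani spores. Kept 48 h saturated humidity at 27 °C, then 5 days at 20 °C; visual disease control rated 0–100 relative to untreated controls.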

A further series has as its system Septoria nodorum. Nature of the series: Test C: wheat seedlings sprayed, next day inoculated with Septoria nodorum (wheat glume blotch), visual disease rating. As to conditions: Parastagonospora nodorum, 200 ppm test suspension, sprayed day before inoculation. It is filed as in vivo. The method, boiled down:
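Preventive foliar test: wheat seedlings sprayed to run-off at 200 ppm (≈500 g/ha) or 40 ppm, in acetone/water with 250 ppm Trem 014, then inoculated with spores the next day. Held 48 h saturated at 24° C, then 6 days at 20° C; disease control rated visually, 0–100 relative to untreated controls.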

In a further series the test system is Septoria tritici. Nature of the series: Test D: wheat seedlings sprayed, next day inoculated with Septoria tritici (wheat leaf blotch), visual disease rating. Conditions: Zymoseptoria tritici, 200 ppm test suspension, sprayed day before inoculation. In kind it is in vivo. The method, boiled down: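 Wheat seedlings sprayed to run-off with 200 ppm (≈500 g/ha) or 40 ppm suspension, inoculated with Septoria tritici spores next day. Held at 24° C in saturated atmosphere for 48 h, then 20° C for 19 days before visual rating, expressed as 0–100% disease control relative to controls.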

The subject of series [1] is Puccinia recondita f. sp. tritici. Nature of the series: Test E1: wheat seedlings inoculated with Puccinia recondita f. sp. tritici (wheat leaf rust), sprayed afterwards, visual disease rating. It is filed as in vivo. As to conditions: Puccinia recondita, 200 ppm test suspension, sprayed after inoculation. An excerpt:
General protocol for preparing test suspensions for Tests A-F: the test compounds were first dissolved in acetone in an amount equal to 3% of the final volume and then suspended at the desired concentration (in ppm) in acetone and purified water (50/50 mix) containing 250 ppm of the surfactant Trem® 014 (polyhydric alcohol esters). The resulting test suspensions were then used in Tests A-F. Spraying a 200 ppm test suspension to the point of run-off on the test plants was the equivalent of a rate of 500 g/ha. An asterisk “*” next to the rating value indicates a 40 ppm test suspension.
Wheat seedlings were inoculated with a spore suspension of Puccinia recondita f. sp. tritici (the causal agent of wheat leaf rust) and incubated in a saturated atmosphere at 20° C. for 24 h, and then moved to a growth chamber at 20° C. for 2 days. At the end of this time the test suspension was sprayed to the point of run-off on the wheat seedlings, and then the seedlings were moved to a growth chamber at 20° C. for 6 days, after which time visual disease ratings were made.
Results for Tests A-F are given in Table A. In the Table, a rating of 100 indicates 100% disease control and a rating of 0 indicates no disease control (relative to the controls). A dash (-) indicates no test results. All results are for 200 ppm except where followed by “*”, which indicates 40 ppm.

For series [2] the test system is unchanged. Nature of the series: Test E2: wheat seedlings sprayed, next day inoculated with Puccinia recondita f. sp. tritici (wheat leaf rust), visual disease rating. As to conditions: Puccinia recondita, 200 ppm test suspension, sprayed day before inoculation. It is filed as in vivo. The method, boiled down:
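Compounds in acetone/water (50/50) with 250 ppm Trem® 014 sprayed to run-off at 200 ppm (equivalent to 500 g/ha) or 40 ppm where marked "*". Seedlings inoculated next day with spores, held 24 h saturated at 20° C, then 7 days at 20° C; visual rating 0-100% disease control relative to controls.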

For another series, the system named is Erysiphe graminis. Nature of the series: Test F: wheat seedlings sprayed, next day inoculated with Erysiphe graminis (wheat powdery mildew), visual disease rating. In kind it is in vivo. As to conditions: Blumeria graminis, 200 ppm test suspension, sprayed day before inoculation. The method, boiled down:
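Seedlings sprayed to run-off with compound suspension in acetone/water containing 250 ppm Trem® 014 (200 ppm ≈ 500 g/ha; asterisked ratings 40 ppm). Inoculated next day with Erysiphe graminis spores and kept 8 days at 20° C. Visual rating 0-100% disease control relative to controls.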

Among the data in patent US20120135995A1, “FUNGICIDAL DIPHENYL-SUBSTITUTED PYRIDAZINES” (E.I. Dupont de Nemours and Company, priority 2009, published 2012) are pest or weed control and melting point values, retold here.

The pest or weed control is the degree to which the test organism was suppressed or injured, in per cent. High values mean strong suppression, low ones weak suppression. As a reminder, the melting point is the temperature of the solid-liquid transition. For the compound `COc1cc(OC)cc(-c2c(C)nnc(F)c2-c2c(F)cccc2F)c1` [Compound 33, 4-(2,6-difluorophenyl)-3-fluoro-5-(3,5-dimethoxyphenyl)-6-methylpyridazine], the melting point lay within 150 to 151 °C. Moreover, in the series with Botrytis cinerea, the pest or weed control at 200 ppm was 99%. Moreover, in the series with Alternaria solani, the pest or weed control at 200 ppm came out at 100%. The compound further gave a pest or weed control at 200 ppm with Septoria nodorum of 99%. The same compound yielded a pest or weed control at 200 ppm in the series on Septoria tritici of 100%. The compound also gave a pest or weed control at 200 ppm in series [1] of 60%. Moreover, in series [2], the pest or weed control at 200 ppm turned out to be 100%. The compound further showed a pest or weed control at 200 ppm with Erysiphe graminis of 99%.
